Reference: patent US8952024B2, “Herbicidal pyrimidone derivatives” (E I du Pont de Nemours and Company, priority 2009, dated 2015)

How the values were obtained:
Type in all cases: in vivo
[1] = system: Surinam grass (Brachiaria decumbens); assay: Test B pre-/postemergence plant response
Method in brief: (§1)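 Visual injury, 0–100 scale (100 = complete control), rated against controls after 13 to 15 days in greenhouse. Pre-emergence: seeds in loam/sand soil, treated at planting. Post-emergence: 1- to 4-leaf plants (2 to 18 cm) in peat/vermiculite medium. Compounds formulated in non-phytotoxic solvent with surfactant.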

[2] = system: pigweed (Amaranthus retroflexus); assay: Test B pre-/postemergence plant response
Method in brief: as §1

[3] = system: blackgrass (Alopecurus myosuroides); assay: Test B pre-/postemergence plant response
Method in brief: as §1

[4] = system: johnsongrass (Sorghum halepense); assay: Test B pre-/postemergence plant response
Method in brief: as §1

[5] = system: green foxtail (Setaria viridis); assay: Test B pre-/postemergence plant response
Method in brief: as §1

[6] = system: ragweed (common ragweed, Ambrosia elatior); assay: Test B pre-/postemergence plant response
Method in brief: as §1

[7] = system: lambsquarters (Chenopodium album); assay: Test B pre-/postemergence plant response
Method in brief: as §1

corn (Zea mays) = assay: Test B pre-/postemergence plant response
Method in brief: as §1

wild oat (Avena fatua) = assay: Test B pre-/postemergence plant response
Method in brief: as §1

[8] = system: giant foxtail (Setaria faberii); assay: Test B pre-/postemergence plant response
Method in brief: as §1

[9] = system: goosegrass (Eleusine indica); assay: Test B pre-/postemergence plant response
Method in brief: as §1

[10] = system: umbrella sedge (Cyperus difformis); assay: Test B flooded paddy test; conditions: for Plant response rating, Sedge, Umbrella: Flood (flooded paddy test), 13 to 15 days
Method in brief: (§2)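 Each compound is added to standing floodwater (3 cm above soil, maintained) in pots of 2-leaf-stage plants; greenhouse exposure lasts 13–15 d before visual comparison with controls on a 0–100 control scale.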

rice (Oryza sativa) = assay: Test B flooded paddy test; conditions: for Plant response rating, Rice: Flood (flooded paddy test), 13 to 15 days
Method in brief: as §2

[11] = 31 g ai/ha, postemergence, scale 0 to 100, 0 is no effect, 100 is complete control
[12] = Postemergence, 62 g ai/ha, scale 0 (no effect) to 100 (complete control), 13 to 15 days
[13] = Postemergence, 125 g ai/ha, visual rating after 13 to 15 days, scale 0 (no effect) to 100 (complete control)
[14] = Postemergence, 250 g ai/ha, scale 0 to 100 (0 no effect, 100 complete control)
[15] = Preemergence, 31 g ai/ha, scale 0 to 100 (0 no effect, 100 complete control)
[16] = Preemergence, 62 g ai/ha, scale 0 to 100 (0 no effect, 100 complete control)
[17] = Preemergence, 125 g ai/ha, scale 0 to 100, 0 no effect, 100 complete control
[18] = 250 g ai/ha, Preemergence, 0 to 100 scale
[19] = 250 g ai/ha, flooded paddy test, visual rating on 0 to 100 scale (0 no effect, 100 complete control) after 13 to 15 days
[20] = 31 g ai/ha, scale of 0 to 100 where 0 is no effect and 100 is complete control
[21] = 62 g ai/ha, scale of 0 to 100 where 0 is no effect and 100 is complete control
[22] = 125 g ai/ha, scale 0 to 100, 0 is no effect, 100 is complete control

## Cn1c(-c2ccccc2)ncc(C(=O)C2=C(O)CCCC2=O)c1=O [Compound 55]
[1]; [11]
  Plant response rating, Surinam Grass: 10
[1]; [12]
  Plant response rating, Surinam Grass: 15
[1]; [13]
  Plant response rating, Surinam Grass: 45
[1]; [14]
  Plant response rating, Surinam Grass: 60
[1]; [15]
  Plant response rating, Surinam Grass: 0
[1]; [16]
  Plant response rating, Surinam Grass: 0
[1]; [17]
  Plant response rating, Surinam Grass: 0
[2]; [11]
  Plant response rating, Pigweed: 80
[2]; [12]
  Plant response rating, Pigweed: 85
[2]; [13]
  Plant response rating, Pigweed: 90
[2]; [14]
  Plant response rating, Pigweed: 95
[2]; [15]
  Plant response rating, Pigweed: 45
[2]; [16]
  Plant response rating, Pigweed: 95
[2]; [17]
  Plant response rating, Pigweed: 98
[3]; [11]
  Plant response rating, Blackgrass: 0
[3]; [18]
  Plant response rating, Blackgrass: 30
[3]; [12]
  Plant response rating, Blackgrass: 0
[3]; [13]
  Plant response rating, Blackgrass: 5
[3]; [14]
  Plant response rating, Blackgrass: 10
[3]; [15]
  Plant response rating, Blackgrass: 0
[3]; [16]
  Plant response rating, Blackgrass: 0
[3]; [17]
  Plant response rating, Blackgrass: 0
[4]; [11]
  Plant response rating, Johnsongrass: 0
[4]; [18]
  Plant response rating, Johnsongrass: 0
[4]; [12]
  Plant response rating, Johnsongrass: 0
[4]; [13]
  Plant response rating, Johnsongrass: 10
[4]; [14]
  Plant response rating, Johnsongrass: 20
[4]; [15]
  Plant response rating, Johnsongrass: 0
[4]; [16]
  Plant response rating, Johnsongrass: 0
[4]; [17]
  Plant response rating, Johnsongrass: 0
[5]; [11]
  Plant response rating, Foxtail, Green: 30
[5]; [18]
  Plant response rating, Foxtail, Green: 0
[5]; [12]
  Plant response rating, Foxtail, Green: 40
[5]; [13]
  Plant response rating, Foxtail, Green: 80
[5]; [14]
  Plant response rating, Foxtail, Green: 80
[5]; [15]
  Plant response rating, Foxtail, Green: 0
[5]; [16]
  Plant response rating, Foxtail, Green: 0
[5]; [17]
  Plant response rating, Foxtail, Green: 0
[6]; [11]
  Plant response rating, Ragweed: 70
[6]; [12]
  Plant response rating, Ragweed: 80
[6]; [13]
  Plant response rating, Ragweed: 95
[6]; [14]
  Plant response rating, Ragweed: 98
[6]; [15]
  Plant response rating, Ragweed: 55
[6]; [16]
  Plant response rating, Ragweed: 65
[6]; [17]
  Plant response rating, Ragweed: 85
[7]; [11]
  Plant response rating, Lambsquarters: 80
[7]; [18]
  Plant response rating, Lambsquarters: 100
[7]; [12]
  Plant response rating, Lambsquarters: 80
[7]; [13]
  Plant response rating, Lambsquarters: 95
[7]; [14]
  Plant response rating, Lambsquarters: 98
[7]; [15]
  Plant response rating, Lambsquarters: 95
[7]; [16]
  Plant response rating, Lambsquarters: 98
[7]; [17]
  Plant response rating, Lambsquarters: 98
Corn (Zea mays); [11]
  Plant response rating, Corn: 0
Corn (Zea mays); [18]
  Plant response rating, Corn: 0
Corn (Zea mays); [12]
  Plant response rating, Corn: 5
Corn (Zea mays); [13]
  Plant response rating, Corn: 5
Corn (Zea mays); [14]
  Plant response rating, Corn: 10
Corn (Zea mays); [15]
  Plant response rating, Corn: 0
Corn (Zea mays); [16]
  Plant response rating, Corn: 0
Corn (Zea mays); [17]
  Plant response rating, Corn: 0
Wild oat (Avena fatua); [11]
  Plant response rating, Oat, Wild: 0
Wild oat (Avena fatua); [12]
  Plant response rating, Oat, Wild: 0
Wild oat (Avena fatua); [13]
  Plant response rating, Oat, Wild: 0
Wild oat (Avena fatua); [14]
  Plant response rating, Oat, Wild: 5
Wild oat (Avena fatua); [15]
  Plant response rating, Oat, Wild: 0
Wild oat (Avena fatua); [16]
  Plant response rating, Oat, Wild: 0
Wild oat (Avena fatua); [17]
  Plant response rating, Oat, Wild: 0
[8]; [11]
  Plant response rating, Foxtail, Giant: 25
[8]; [18]
  Plant response rating, Foxtail, Giant: 10
[8]; [12]
  Plant response rating, Foxtail, Giant: 30
[8]; [13]
  Plant response rating, Foxtail, Giant: 55
[8]; [14]
  Plant response rating, Foxtail, Giant: 75
[8]; [15]
  Plant response rating, Foxtail, Giant: 0
[8]; [16]
  Plant response rating, Foxtail, Giant: 0
[8]; [17]
  Plant response rating, Foxtail, Giant: 0
[9]; [11]
  Plant response rating, Goosegrass: 45
[9]; [18]
  Plant response rating, Goosegrass: 98
[9]; [12]
  Plant response rating, Goosegrass: 60
[9]; [13]
  Plant response rating, Goosegrass: 65
[9]; [14]
  Plant response rating, Goosegrass: 75
[9]; [15]
  Plant response rating, Goosegrass: 45
[9]; [16]
  Plant response rating, Goosegrass: 95
[9]; [17]
  Plant response rating, Goosegrass: 98
[10]; [19]
  Plant response rating, Flood, Sedge, Umbrella: 60
[10]; [20]
  Plant response rating, Sedge, Umbrella: 0
[10]; [21]
  Plant response rating, Sedge, Umbrella: 30
[10]; [22]
  Plant response rating, Sedge, Umbrella: 40
Rice (Oryza sativa); [19]
  Plant response rating, Flood, Rice: 25
Rice (Oryza sativa); [20]
  Plant response rating, Rice: 0
Rice (Oryza sativa); [21]
  Plant response rating, Rice: 10
Rice (Oryza sativa); [22]
  Plant response rating, Rice: 15
